Drawing on patent publication US5276049A, “Cyclic urea derivatives, pharmaceutical compositions containing these compounds and methods of using the same” (Dr. Karl Thomae GmbH, priority 1991, dated 1994), this text covers IC50 and EC50 for 31 compounds.

One test relates to Human Thrombocytes. Description: Fibrinogen Binding to Human Thrombocytes (I125-fibrinogen, gel-filtered platelets). The following applies: inhibition of I125-fibrinogen binding to gel-filtered human platelets, ADP, 20 minutes, ambient temperature; read-out: Fibrinogen Binding test IC50. How it is done:
1. Fibrinogen Binding to Human Thrombocytes Blood obtained by puncture of an antecubital vein was anticoagulated with trisodium citrate (final concentration: 13 mM) and centrifuged for 10 minutes at 170 *g. The supernatant platelet-rich plasma was placed on a Sepharose 2B column (Pharmacia) and eluted with a solution of 90 mM common salt, 14 mM trisodium citrate, 5 mM glucose and 50 mM tris(hydroxymethyl)aminomethane, adjusted to pH 7.4. The gel-filtered platelets (GFP) appearing in front of the plasma proteins were used for the binding tests. 50 μl of a 60 mM calcium chloride solution, 50 μl of a 0.6 mM adenosine diphosphate solution, 100 μl of substance solution or solvent and 50 μl of fibrinogen solution (containing 3 μg I125-fibrinogen) were added to 750 μl of GFP and incubated for 20 minutes at ambient temperature. The non-specific binding was measured in the presence of 3 mg/ml of cold fibrinogen. 900 μl of the incubate were carefully pipetted onto 250 μl of silicon oil (AP 38: AR 20, 1:2 v/v, Wacker Chemie) in Eppendorf vessels and centrifuged for 2 minutes at 10,000 *g. The aqueous supernatant and some of the oil were removed, the tip of the vessel with the platelet pellet was cut off and the quantity of bound fibrinogen was measured in a gamma-counter. The concentration of substance which inhibited fibrinogen binding by 50% was calculated from a series of concentrations and given as the IC50.

Test [1] has as its system thrombocyte aggregation in platelet-rich plasma. Description: Antithrombotic effect: collagen-induced thrombocyte aggregation in platelet-rich plasma (Born and Cross). It counts as cell-based. The following applies: human platelet-rich plasma, 10 minutes preincubation at 37° C., read-out: Inhibition of platelet aggregation EC50. How it is done:
2. Antithrombotic Effect Method: The thrombocyte aggregation was measured in platelet-rich plasma from healthy test subjects using the Born and Cross method (J. Physiol. 170: 397 (1964)). In order to inhibit coaggulation the blood was mixed with 3.14% sodium citrate in a ratio by volume of 1:10. Collagen-induced aggregation: The decrease in the optical density of the platelet suspension was measured photometrically and recorded after the addition of the aggregation-initiating substance. The speed of aggregation was concluded from the angle of inclination of the density curve. The point on the curve at which there was maximum transmittance was used to calculate the optical density. The quantity of collagen used was as little as possible but sufficient to give an irreversible reaction curve. Standard commercial collagen produced by Hormonchemie of Munich was used. Before the addition of collagen the plasma was incubated with the substance for 10 minutes at 37° C. From the measurements obtained, an EC50 was determined graphically, relating to a 50% change in the optical density in terms of inhibiting aggregation.

The structures appear in SMILES notation. Where a name gives a salt, the structure may show the parent alone.

Usually IC50 stands for the point on the concentration scale where inhibition reaches its midpoint. The EC50 is the concentration that produces a half-maximal response. For `N=C(N)c1ccc(-c2ccc(N3CCN(CCC(=O)O)C3=O)cc2)cc1` [1(1), 1-(4'-amidino-4-biphenylyl)-3-(2-carboxy-ethyl)-imidazolidin-2-one], the IC50 in the test with Human Thrombocytes worked out at 0.045 µM. For the same compound, the EC50 in test [1] was 1.5 µM.

For the compound `N=C(N)c1ccc(-c2ccc(N3CC(=O)N(CCC(=O)O)C3=O)cc2)cc1` [1(2), 1-(4'-amidino-4-biphenylyl)-3-(2-carboxy-ethyl)-imidazolidin-2,4-dione], the IC50 in the test on Human Thrombocytes is 0.096 µM. In test [1], the EC50 came out at 0.32 µM.

`N=C(N)c1ccc(-c2ccc(-n3ccn(CCC(=O)O)c3=O)cc2)cc1` [1(3), 1-(4'-amidino-4-biphenylyl)-3-(2-carboxy-ethyl)-3H-imidazol-2-one]: the half-maximal inhibitory concentration (IC50) with Human Thrombocytes came to 0.19 µM. Further, in test [1], the EC50 was determined as 1.7 µM.

In the case of `N=C(N)c1ccc(-c2ccc(N3CCCN(CCC(=O)O)C3=O)cc2)cc1` [1(4), 1-(4'-amidino-4-biphenylyl)-3-(2-carboxy-ethyl)-3,4,5,6-tetrahydro-1H-pyrimidin-2-one], in the test with Human Thrombocytes, the IC50 stood at 3.9 µM. Besides, in test [1], the EC50 is more than 100 µM.

As for `N=C(N)c1ccc(-c2ccc(N3CCCN(CC(=O)O)C3=O)cc2)cc1` [1(5), 1-(4'-amidino-4-biphenylyl)-3-carboxymethyl-3,4,5,6-tetrahydro-1H-pyrimidin-2-one], the IC50 with Human Thrombocytes amounted to 6.1 µM. Moreover, the EC50 in test [1] amounted to 32 µM.

Take `N=C(N)c1ccc(N2CCN(c3ccc(CCC(=O)O)cc3)C2=O)cc1` [1(6), 1-(4-amidino-phenyl)-3-[4-(2-carboxy-ethyl)-phenyl]-imidazolidin-2-one]: in the test with Human Thrombocytes, the IC50 is 0.017 µM. The EC50 in test [1] is 0.07 µM.

In the case of `N=C(N)c1ccc(N2CCCN(c3ccc(CCC(=O)O)cc3)C2=O)cc1` [1(7), 1-(4-amidino-phenyl)-3-[4-(2-carboxy-ethyl)-phenyl]-3,4,5,6-tetrahydro-1H-pyrimidin-2-one], the IC50 in the test on Human Thrombocytes worked out at 2.4 µM. Moreover, the EC50 in test [1] came to 10 µM.

In the case of `N=C(N)c1ccc(-c2ccc(N3CCN(CCC(=O)O)S3(=O)=O)cc2)cc1` [1(21), 2-(4'-amidino-4-biphenylyl)-5-(2-carboxy-ethyl)-3,4-dihydro-2H,5H-1,2,5-thiadiazol-1,1-dioxide], in the test on Human Thrombocytes, the IC50 stood at 0.031 µM. The EC50 in test [1] came to 0.62 µM.

`N=C(N)c1ccc(N2CCC(N3CCN(CCC(=O)O)C3=O)CC2)cc1` [1(24), 1-[1-(4-amidino-phenyl)-4-piperidinyl]-3-(2-carboxy-ethyl)-imidazolidin-2-one]: in the test with Human Thrombocytes, the IC50 was 0.47 µM. Also, in test [1], the EC50 worked out at 1.1 µM.

Take `N=C(N)c1ccc(-c2ccc(N3CCN(CCC(=O)O)C3=O)nn2)cc1` [1(28), 1-[6-(4-amidino-phenyl)-3-pyridazinyl]-3-(2-carboxy-ethyl)-imidazolidin-2-one]: the IC50 in the test with Human Thrombocytes was 0.052 µM. The EC50 in test [1] stood at 0.39 µM.

Consider `Cc1cc(C(=N)N)ccc1N1CCN(c2ccc(CCC(=O)O)cc2)C1=O` [1(36), 1-(4-amidino-2-methyl-phenyl)-3-[4-(2-carboxy-ethyl)-phenyl]-imidazolidin-2-one], for which the IC50 in the test with Human Thrombocytes was 0.037 µM. Besides, the EC50 in test [1] is 0.1 µM.

In the case of `N=C(N)c1ccc(N2CCN(C3CCC(CCC(=O)O)CC3)C2=O)cc1` (stereo not shown) [1(46), 1-(4-amidino-phenyl)-3-[4-(2-carboxy-ethyl)cyclohexyl]-imidazolidin-2-one], in the test with Human Thrombocytes, the IC50 came to 0.011 µM. In addition, in test [1], the EC50 was determined as 0.04 µM.

As for `N=C(N)c1ccc(N2CCN(c3ccc(SCC(=O)O)cc3)C2=O)cc1` [1(48), 1-(4-amidino-phenyl)-3-(4-carboxymethylthiophenyl)-imidazolidin-2-one], the IC50 with Human Thrombocytes came out at 0.21 µM. Moreover, the EC50 in test [1] amounted to 1.1 µM.

With `N=C(N)c1ccc(N2CCN(c3ccc([S+]([O-])CC(=O)O)cc3)C2=O)cc1` (stereo not shown) [1(49), 1-(4-amidino-phenyl)-3-(4-carboxymethylsulphinylphenyl)-imidazolidin-2-one], in the test on Human Thrombocytes, the half-maximal inhibitory concentration (IC50) stood at 0.026 µM. The EC50 in test [1] amounted to 0.14 µM.

In the case of `N=C(N)c1ccc(N2CCN(c3ccc(S(=O)(=O)CC(=O)O)cc3)C2=O)cc1` [1(50), 1-(4-amidino-phenyl)-3-(4-carboxymethylsulphonylphenyl)-imidazolidin-2-one], the IC50 in the test on Human Thrombocytes turned out to be 0.045 µM. In test [1], the EC50 was 0.29 µM.

As for `CC(C)(CC(=O)O)c1ccc(N2CCN(c3ccc(C(=N)N)cc3)C2=O)cc1` [1(51), 1-(4-amidino-phenyl)-3-[4-(3-carboxy-2-methyl-2-propyl)-phenyl]-imidazolidin-2-one], in the test with Human Thrombocytes, the 50% inhibitory concentration (IC50) turned out to be 3.6 µM. Also, the concentration for a half-maximal effect (EC50) in test [1] stood at 13 µM.

`N=C(N)c1ccc(N2CCN(CCc3ccc(C(=O)O)cc3)C2=O)cc1` [1(55), 1-(4-amidino-phenyl)-3-[2-(4-carboxyphenyl)-ethyl]-imidazolidin-2-one]: the IC50 in the test with Human Thrombocytes was found to be 0.86 µM. Besides, in test [1], the half-maximal effective concentration (EC50) was 60 µM.

For the compound `NCc1ccc(N2CCN(c3ccc(CCC(=O)O)cc3)C2=O)cc1` [1(59)], the IC50 in the test on Human Thrombocytes turned out to be 0.15 µM. In addition, the 50% effective concentration (EC50) in test [1] is 0.35 µM.

For `N=C(N)c1ccc(N2CC(=O)N(c3ccc(CCC(=O)O)cc3)C2=O)cc1` [1(62), 1-(4-amidino-phenyl)-3-[4-(2-carboxy-ethyl)-phenyl]-imidazolidin-2,4-dione], the IC50 in the test with Human Thrombocytes worked out at 0.013 µM. For the same compound, the EC50 in test [1] was determined as 0.04 µM.

As to `N=C(N)c1ccc(-n2ccn(-c3ccc(CCC(=O)O)cc3)c2=O)cc1` [1(67), 1-(4-amidino-phenyl)-3-[4-(2-carboxy-ethyl)-phenyl]-3H-imidazol-2-one], the IC50 in the test with Human Thrombocytes was determined as 0.03 µM. Moreover, in test [1], the EC50 amounted to 0.06 µM.

For the compound `N=C(N)c1ccc(N2CCN(CCCCC(=O)O)C2=O)cc1` [1(77), -(4-amidino-phenyl)-3-(4-carboxy-butyl)-imidazolidin-2-one], the IC50 in the test with Human Thrombocytes was determined as 4.9 µM. Besides, the EC50 in test [1] amounted to 8 µM.

Turning to `Cc1nn(-c2ccc(CCC(=O)O)cc2)c(=O)n1-c1ccc(C(=N)N)cc1` [1(137), 4-(4-amidino-phenyl)-2-[4-(2-carboxy-ethyl)-phenyl]-5-methyl-4H-1,2,4-triazol-3-one], in test [1], the EC50 was found to be 0.28 µM.

In the case of `Cc1cn(-c2ccc(CCC(=O)O)cc2)c(=O)n1-c1ccc(C(=N)N)cc1` [1(144), 3-(4-amidino-phenyl)-1-[4-(2-carboxy-ethyl)-phenyl]-4-methyl-3H-imidazol-2-one], the concentration for a half-maximal effect (EC50) in test [1] came out at 0.6 µM.

Regarding `COC(=O)CSc1ccc(N2CCN(c3ccc(C(=N)N)cc3)C2=O)cc1` [2(45), 1-(4-amidino-phenyl)-3-(4-methoxycarbonyl-methylthio-phenyl)-imidazolidin-2-one], in test [1], the EC50 was determined as 0.28 µM.

For `COC(=O)CCc1ccc(-n2nc(C)n(-c3ccc(C(=N)N)cc3)c2=O)cc1` [2(117), 4-(4-amidino-phenyl)-2-[4-(2-methoxycarbonyl-ethyl)-phenyl]-5-methyl-4H-1,2,4-triazol-3-one hydrochloride], in test [1], the EC50 was 0.63 µM.

Consider `COC(=O)CCc1ccc(-n2cc(C)n(-c3ccc(C(=N)N)cc3)c2=O)cc1` [2(122), 3-(4-amidino-phenyl)-1-[4-(2-methoxycarbonyl-ethyl)-phenyl]-4-methyl-3H-imidazol-2-one hydrochloride-hydrate], for which the EC50 in test [1] is 1.2 µM.

As for `COC(=O)CCc1ccc(-n2ncn(-c3ccc(C(=N)N)cc3)c2=O)cc1` [2(124), 4-(amidino-phenyl)-2-[4-(2-methoxycarbonyl-ethyl)-phenyl]-4H-1,2,4-triazol-3-one hydrochloride], the EC50 in test [1] was found to be 0.13 µM.

As to `COC(=O)CCc1ccc(-n2cnn(-c3ccc(C(N)=NC(=O)OC)cc3)c2=O)cc1` [5(11), 2-(4-methoxycarbonylamidino-phenyl)-3-[4-(2-methoxycarbonyl-ethyl)-phenyl]-4H-1,2,4-triazol-3-one], the IC50 with Human Thrombocytes came out at 5.7 µM.

For the compound `COC(=O)CCC1CCC(N2CCN(c3ccc(C(=N)NC(=O)OC)cc3)C2=O)CC1` (stereo not shown) [5(12), 1-(4-methoxycarbonylamidino-phenyl)-3-[4-(2-methoxycarbonyl-ethyl)-cyclohexyl]-imidazolidin-2-one], in the test on Human Thrombocytes, the IC50 was found to be 3.7 µM.

Turning to `Cc1nn(-c2ccc(C(=N)N)cc2)c(=O)n1-c1ccc(CCC(=O)OC(C)C)cc1` [11(11), 2-(4-amidino-phenyl)-4-[4-(2-isopropyloxycarbonyl-ethyl)-phenyl]-5-methyl-4H-1,2,4-triazol-3-one hydrochloride], in test [1], the EC50 came out at 0.21 µM.

Take `COC(=O)CS(=O)(=O)c1ccc(N2CCN(c3ccc(C(=N)N)cc3)C2=O)cc1` [Example 18, 1-(4-Amidino-phenyl)-3-(methoxycarbonylmethylsulphonyl-phenyl)-imidazolidin-2-one]: the concentration giving a half-maximal response (EC50) in test [1] was found to be 0.24 µM.
